Experimental data taken from paper PMC6514680, “Labdane and Abietane Diterpenoids from Juniperus oblonga and Their Cytotoxic Activity” (Molecules, 2019).
Read-outs that look alike come from different tables or passages of the source.

What was measured:
[1] = MTT cytotoxicity assay, HepG2; parameters: cytotoxicity at 72 h / Cytotoxicity (%I) HepG2: dose or concentration left out as unconfirmed; conditions: human, HepG2 cells
Protocol: (§1) MTT assay was used to measure the in vitro cytotoxicity of the isolated compounds. Human breast adenocarcinoma cell line (MCF-7), human liver hepatocellular carcinoma cell line (HepG2), and human cervical cancer cell line (HeLa) were cultured in Dulbecco’s modified Eagle’s medium (DMEM) and Roswell Park Memorial Institute medium (RPMI 1640), which was supplemented with 10% fetal bovine serum (FBS) at 37 °C in a humidified atmosphere of 5% CO2. The cells were cultured in 96-well plates for 24 h and then treated with test compounds at various concentrations (8–125 μM) for 72 h. After incubation for another 4 h with a 20 µL aliquot of the MTT [3-(4,5-dimethylthiazol-2-yl)-2,5-diphenyl tetrazolium bromide] solution (5 mg/mL in PBS), the medium was discarded, and 150 µL of DMSO was added to dissolve the produced formazan. The absorbance was measured at 490 nm and 570 nm using a microplate reader. Doxorubicin was used as a positive control. Each experiment was carried out in triplicate. The IC50 values were calculated using Graphpad Prism 5 software.

[2] = MTT cytotoxicity assay, MCF-7; parameters: cytotoxicity at 72 h: dose or concentration left out as unconfirmed; conditions: human, MCF-7 cells
Protocol: as §1

[3] = MTT cytotoxicity assay, LO2; parameters: dose or concentration left out as unconfirmed; conditions: human, LO2 normal liver cells
[4] = MTT cytotoxicity assay, HeLa; parameters: cytotoxicity at 72 h / Cytotoxicity (%I) HeLa: dose or concentration left out as unconfirmed; conditions: human, HeLa cells
Protocol: as §1

[5] = system: three human tumor cell lines (HepG2, MCF-7, and HeLa); test: MTT cytotoxicity assay, summary over three tumor cell lines
[6] = system: human hepatocellular carcinoma cell line (HepG2); test: MTT cytotoxicity assay, HepG2; parameters: cytotoxicity at 72 h / Cytotoxicity (%I) HepG2: dose or concentration left out as unconfirmed; conditions: HepG2; MTT
Protocol: as §1

[7] = system: human breast cancer cell line (MCF-7); test: MTT cytotoxicity assay, MCF-7; parameters: cytotoxicity at 72 h: dose or concentration left out as unconfirmed; conditions: MCF-7; 4 mg/mL; MTT
Protocol: as §1

[8] = system: normal human liver cell line (LO2); test: MTT cytotoxicity assay, LO2; parameters: dose or concentration left out as unconfirmed; conditions: LO2 normal liver cells; MTT
[9] = system: human cervical carcinoma cancer cell line (HeLa); test: MTT cytotoxicity assay, HeLa; parameters: cytotoxicity at 72 h / Cytotoxicity (%I) HeLa: dose or concentration left out as unconfirmed; conditions: HeLa; MTT
Protocol: as §1

[10] = system: human breast cancer cell line (MCF-7)
Protocol: as §1

[11] = system: human cervical carcinoma cancer cell line (HeLa); parameters: Cytotoxicity (%I) HeLa: dose or concentration left out as unconfirmed
Protocol: as §1

[12] = system: human hepatocellular carcinoma cell line (HepG2); parameters: Cytotoxicity (%I) HepG2: dose or concentration left out as unconfirmed
Protocol: as §1

[13] = system: normal human liver cell line (LO2); parameters: dose or concentration left out as unconfirmed

Compound	cytotoxicity at 72 h [1] [%]	cytotoxicity at 72 h [2] [%]	cytotoxicity at 72 h [3] [%]	cytotoxicity at 72 h [4] [%]	further results
C=C1CCC2C(C)(C(=O)O)CCCC2(C)C1C=CC(C)=O [Compound 1, (4R,5S,9S,10R)-13-des-ethyl-13-oxolabda-8(17),11E-dien-19-oic acid]	18.4	28.4	20.6	26.4	
C=C1CC[C@@H]2[C@](C)(CCC[C@]2(C)C(=O)O)[C@H]1C/C=C(/C)C=O [Compound 2, 15-nor-14-oxolabda-8(17),12Z-dien-19-oic acid]	16.1	21.1	10.6	23.9	
CC(C)c1cc2c(cc1O)[C@@]1(C)CCCC(C)(C)[C@@H]1CC2=O [Compound 3, sugiol]	35	9.2	26.6	12.3	
CC(C)c1cc2c(cc1O)C1(C)CCCC(C)(C)C1=C(O)C2=O (centres unmarked) [Compound 6, 6,12-dihydroxyabieta-5,8,11,13-tetraen-7-one]	86.6	84	27.8	83.8	IC50 at 72 h [1]: 48.7 ± 1.31 µM; cytotoxicity in words ([5]; HepG2, MCF-7 and HeLa, MTT): moderate cytotoxicity; IC50 ([5]; Homo sapiens, read-out: IC50 values, range over all three cell lines): 24.4 to 58.4 µM; IC50 at 72 h [2]: 58.4 ± 2.45 µM; IC50 at 72 h [4]: 24.4 ± 2.05 µM
O=c1ccc2ccc(O)cc2o1 [Compound 13, umbelliferone]	32.7	18	26.6	3.6	
COc1cccc2c1C(=O)c1c(O)c3c(c(O)c1C2=O)C[C@@](O)(C(=O)CO)C[C@@H]3O[C@H]1C[C@H](N)[C@H](O)[C@H](C)O1 [Doxorubicin, reference compound]	42.2	46.5	46.7	49.5	IC50 at 72 h [1]: 3.18 ± 1.19 µM; IC50 at 72 h [2]: 3.44 ± 1.59 µM; IC50 at 72 h [4]: 3.64 ± 1.37 µM
helioxanthin [Compound 5]					Cytotoxicity (%I) HepG2 [6]: 0.11%; Cytotoxicity (%I @ 4 mg/mL) MCF-7 [7]: 10.09%; Cytotoxicity (%I) LO2 [8]: 9.05%; Cytotoxicity (%I) HeLa [9]: 0.22%
sempervirol [Compound 10]					cytotoxicity in words [5]: weaker activity; Cytotoxicity (%I @ 4 mg/mL) MCF-7 [10]: 43.4%; IC50 [10]: 80 ± 1.2 µM; Cytotoxicity (%I) HeLa [11]: 63.4%; IC50 [11]: 56.9 ± 2.39 µM; Cytotoxicity (%I) HepG2 [12]: 48.67%; IC50 [12]: 64.9 ± 2.64 µM; Cytotoxicity (%I) LO2 [13]: 19.08%
